Patent US10543212B2, “Substituted amines for treating cardiac diseases” (Cardurion Pharmaceuticals, LLC, priority 2017, dated 2020)

biological target: T1, Full-length, GST-tagged, human CaMKIIδ (Homo sapiens, UniProt Q13557); assay: CaMKIIδ binding assay (TR-FRET with BODIPY-labeled probe ligand); details: CaMKIIδ binding assay, results of Table 2
T1 construct: Full-Length, Glutathione-S-Transferase(GST)-Tagged, Human CaMKIIδ was purchased from Carna Biosciences; purchased Carna Biosciences 02-111
Procedure, shortened: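 TR-FRET probe-displacement binding: 0.5 nM GST-CaMKIIδ with 10 μg/mL calmodulin, 1 mM CaCl2, 0.21 nM Tb-anti-GST Ab and 300 nM BODIPY probe in HEPES pH 7.6 buffer. Eight-point 4-fold dilutions, 1 hr at room temperature. IC50 from logistic fit; 100% inhibition defined by 3 μM parent compound.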

T1 sequence (Q13557 1-478 isoform Q13557-12): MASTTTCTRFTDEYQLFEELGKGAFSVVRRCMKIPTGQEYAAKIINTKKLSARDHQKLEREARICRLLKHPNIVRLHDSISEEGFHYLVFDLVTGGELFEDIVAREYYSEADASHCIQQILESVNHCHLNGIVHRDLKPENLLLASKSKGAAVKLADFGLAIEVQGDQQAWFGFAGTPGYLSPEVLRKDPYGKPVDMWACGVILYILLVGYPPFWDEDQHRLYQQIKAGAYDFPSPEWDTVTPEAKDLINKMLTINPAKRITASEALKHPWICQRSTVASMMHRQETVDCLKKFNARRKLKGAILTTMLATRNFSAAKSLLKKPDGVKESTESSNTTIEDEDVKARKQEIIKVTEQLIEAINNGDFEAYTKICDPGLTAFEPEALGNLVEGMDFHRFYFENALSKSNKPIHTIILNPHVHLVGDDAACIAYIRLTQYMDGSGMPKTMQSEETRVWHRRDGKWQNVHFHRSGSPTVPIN

SMILES | IC50 [nM]
COc1cnc(N2CCC(C)(O)CC2)cc1Nc1ncc(-c2ccc(Cl)c(O[C@@H](C)Cn3cnnn3)c2)cn1 [Example 481, (S)-1-(4-((5-(3-((1-(1H-tetrazol-1-yl)propan-2-yl)oxy)-4-chlorophenyl)pyrimidin-2-yl)amino)-5-methoxypyridin-2-yl)-4-methylpiperidin-4-ol] | 10 to 100
C[C@@H](Cn1cnnn1)Oc1cc(-c2cnc(Nc3cc4c(cc3Cl)CCNCC4)nc2)ccc1C#N [Example 527, (S)-2-((1-(1H-tetrazol-1-yl)propan-2-yl)oxy)-4-(2-((8-chloro-2,3,4,5-tetrahydro-1H-benzo[d]azepin-7-yl)amino)pyrimidin-5-yl)benzonitrile] | < 10
C[C@@H](Cn1cnnn1)Oc1cc(-c2cnc(Nc3cc(C4CCNCC4)c(F)cc3F)nc2)ccc1Cl [Example 575, (S)-5-(3-((1-(1H-tetrazol-1-yl)propan-2-yl)oxy)-4-chlorophenyl)-N-(2,4-difluoro-5-(piperidin-4-yl)phenyl)pyrimidin-2-amine] | < 10

same assay, conditions: CaMKIIδ binding assay; activity class per Table 2

SMILES | IC50 [nM]
C[C@@H](Cn1cnnn1)Oc1cc(-c2cnc(Nc3cn(C4CC5(C4)CN(Cc4ncccn4)C5)nc3OCC(F)(F)F)nc2)ccc1Cl [Example 984, (S)-5-(3-((1-(1H-tetrazol-1-yl)propan-2-yl)oxy)-4-chlorophenyl)-N-(1-(2-(pyrimidin-2-ylmethyl)-2-azaspiro[3.3]heptan-6-yl)-3-(2,2,2-trifluoroethoxy)-1H-pyrazol-4-yl)pyrimidin-2-amine] | < 10
C[C@@H](Cn1cnnn1)Oc1cc(-c2cnc(Nc3cn(-c4cn[nH]c4)nc3C(F)(F)F)nc2)ccc1Cl [Example 890, (S)-N-(5-(3-((1-(1H-tetrazol-1-yl)propan-2-yl)oxy)-4-chlorophenyl)pyrimidin-2-yl)-3-(trifluoromethyl)-1′H-[1,4′-bipyrazol]-4-amine] | 10 to 100
C[C@@H](Cn1cnnn1)Oc1cc(-c2cnc(Nc3cn(C[C@]4(O)CC[C@H](O)CC4)nc3OCC(F)(F)F)nc2)ccc1Cl [Example 906, trans-1-((4-((5-(3-(((S)-1-(1H-tetrazol-1-yl)propan-2-yl)oxy)-4-chlorophenyl)pyrimidin-2-yl)amino)-3-(2,2,2-trifluoroethoxy)-1H-pyrazol-1-yl)methyl)cyclohexane-1,4-diol] | < 10
C[C@@H](Cn1cnnn1)Oc1cc(-c2cnc(Nc3cn(CC4(O)CCOCC4)nc3OCC(F)(F)F)nc2)ccc1Cl [Example 886, (S)-4-((4-((5-(3-((1-(1H-tetrazol-1-yl)propan-2-yl)oxy)-4-chlorophenyl)pyrimidin-2-yl)amino)-3-(2,2,2-trifluoroethoxy)-1H-pyrazol-1-yl)methyl)tetrahydro-2H-pyran-4-ol] | < 10
C[C@@H](Cn1cnnn1)Oc1cc(-c2cnc(Nc3cn(C(C)(C)C(=O)N4CCOCC4)nc3OCC(F)(F)F)nc2)ccc1Cl [Example 895, (S)-2-(4-((5-(3-((1-(1H-tetrazol-1-yl)propan-2-yl)oxy)-4-chlorophenyl)pyrimidin-2-yl)amino)-3-(2,2,2-trifluoroethoxy)-1H-pyrazol-1-yl)-2-methyl-1-morpholinopropan-1-one] | 10 to 100

same assay, conditions: Table 2; CaMKIIδ binding assay, activity given as class A/B/C

SMILES | IC50 [nM]
C[C@@H](Cn1cnnn1)Oc1cc(-c2cnc(Nc3cn([C@H]4CC[C@@H](N5CC(O)(C(F)(F)F)C5)CC4)nc3C(F)(F)F)nc2)ccc1Cl [Example 856, 1-(cis-4-(4-((5-(3-(((S)-1-(1H-tetrazol-1-yl)propan-2-yl)oxy)-4-chlorophenyl)pyrimidin-2-yl)amino)-3-(trifluoromethyl)-1H-pyrazol-1-yl)cyclohexyl)-3-(trifluoromethyl)azetidin-3-ol] | 10 to 100
C[C@@H](Cn1cnnn1)Oc1cc(-c2cnc(Nc3cn([C@H]4CC[C@@H](N5CC6(COC6)C5)CC4)nc3OCC(F)F)nc2)ccc1Cl [Example 828, 5-(3-(((S)-1-(1H-tetrazol-1-yl)propan-2-yl)oxy)-4-chlorophenyl)-N-(1-(cis-4-(2-oxa-6-azaspiro[3.3]heptan-6-yl)cyclohexyl)-3-(2,2-difluoroethoxy)-1H-pyrazol-4-yl)pyrimidin-2-amine] | < 10
Cc1ccc(-c2cnc(Nc3cn([C@H]4CC[C@@H](N5CCOCC5)CC4)nc3OCC(F)(F)F)nc2)cc1O[C@@H](C)Cn1cnnn1 [Example 812, 5-(3-(((S)-1-(1H-tetrazol-1-yl)propan-2-yl)oxy)-4-methylphenyl)-N-(1-(cis-4-morpholinocyclohexyl)-3-(2,2,2-trifluoroethoxy)-1H-pyrazol-4-yl)pyrimidin-2-amine] | < 10
C[C@@H](Cn1cnnn1)Oc1cc(-c2cnc(Nc3cn(CC4(O)CCC4)nc3C(F)(F)F)nc2)ccc1F [Example 858, (S)-1-((4-((5-(3-((1-(1H-tetrazol-1-yl)propan-2-yl)oxy)-4-fluorophenyl)pyrimidin-2-yl)amino)-3-(trifluoromethyl)-1H-pyrazol-1-yl)methyl)cyclobutan-1-ol] | 10 to 100
C[C@@H](Cn1cccn1)Oc1cc(-c2cnc(Nc3cn([C@H]4CC[C@@H](N5CCOCC5)CC4)nc3C(F)(F)F)nc2)ccc1C#N [Example 785, 2-(((S)-1-(1H-pyrazol-1-yl)propan-2-yl)oxy)-4-(2-((1-(cis-4-morpholinocyclohexyl)-3-(trifluoromethyl)-1H-pyrazol-4-yl)amino)pyrimidin-5-yl)benzonitrile] | 10 to 100
Cc1ccc(-c2cnc(Nc3cn(C4CCN(C5CCOCC5)CC4)nc3OCC(F)(F)F)nc2)cc1O[C@@H](C)Cn1cnnn1 [Example 788, (S)-5-(3-((1-(1H-tetrazol-1-yl)propan-2-yl)oxy)-4-methylphenyl)-N-(1-(1-(tetrahydro-2H-pyran-4-yl)piperidin-4-yl)-3-(2,2,2-trifluoroethoxy)-1H-pyrazol-4-yl)pyrimidin-2-amine] | < 10
C[C@@H](Cn1cnnn1)Oc1cc(-c2cnc(Nc3nc4ccccc4n3C)nc2)ccc1Cl [Example 745, (S)-N-(5-(3-((1-(1H-tetrazol-1-yl)propan-2-yl)oxy)-4-chlorophenyl)pyrimidin-2-yl)-1-methyl-1H-benzo[d]imidazol-2-amine] | ≥ 100
C[C@@H](Cn1cnnn1)Oc1cc(-c2cnc(Nc3cn(C4CCCCC4O)nc3C(F)(F)F)nc2)ccc1Cl (stereo partly drawn) [Example 733, 2-(4-((5-(3-(((S)-1-(1H-tetrazol-1-yl)propan-2-yl)oxy)-4-chlorophenyl)pyrimidin-2-yl)amino)-3-(trifluoromethyl)-1H-pyrazol-1-yl)cyclohexan-1-ol] | < 10
C[C@@H](Cn1cnnn1)Oc1cc(-c2cnc(Nc3cn(C4CCCC4)nc3C(F)(F)F)nc2)ccc1Cl [Example 739, (S)-5-(3-((1-(1H-tetrazol-1-yl)propan-2-yl)oxy)-4-chlorophenyl)-N-(1-cyclopentyl-3-(trifluoromethyl)-1H-pyrazol-4-yl)pyrimidin-2-amine] | 10 to 100
C[C@@H](Cn1cnnn1)Oc1cc(-c2cnc(Nc3cn(C4CCN(C5CCOCC5)CC4)nc3OCC(F)(F)F)nc2)ccc1F [Example 789, (S)-5-(3-((1-(1H-tetrazol-1-yl)propan-2-yl)oxy)-4-fluorophenyl)-N-(1-(1-(tetrahydro-2H-pyran-4-yl)piperidin-4-yl)-3-(2,2,2-trifluoroethoxy)-1H-pyrazol-4-yl)pyrimidin-2-amine] | < 10
C[C@@H](Cn1cnnn1)Oc1cc(-c2cnc(Nc3cn(CC4(O)CCC4)nc3OCC(F)(F)F)nc2)ccc1Cl [Example 853, (S)-1-((4-((5-(3-((1-(1H-tetrazol-1-yl)propan-2-yl)oxy)-4-chlorophenyl)pyrimidin-2-yl)amino)-3-(2,2,2-trifluoroethoxy)-1H-pyrazol-1-yl)methyl)cyclobutan-1-ol] | < 10

same assay, conditions: Table 2; activity class for CaMKIIδ

SMILES | IC50 [nM]
CCn1cc(Nc2ncc(-c3ccc(Cl)c(O[C@@H](C)Cn4cnnn4)c3)cn2)c(OCC(F)(F)F)n1 [Example 700, (S)-5-(3-((1-(1H-tetrazol-1-yl)propan-2-yl)oxy)-4-chlorophenyl)-N-(1-ethyl-3-(2,2,2-trifluoroethoxy)-1H-pyrazol-4-yl)pyrimidin-2-amine] | < 10
C[C@@H](Cn1cnnn1)Oc1cc(-c2cnc(Nc3cn(Cc4n[nH]c(=O)[nH]4)nc3C(F)(F)F)nc2)ccc1Cl [Example 722, (S)-5-((4-((5-(3-((1-(1H-tetrazol-1-yl)propan-2-yl)oxy)-4-chlorophenyl)pyrimidin-2-yl)amino)-3-(trifluoromethyl)-1H-pyrazol-1-yl)methyl)-2,4-dihydro-3H-1,2,4-triazol-3-one] | ≥ 100
COc1nc(N2CCCN(C3CCOCC3)CC2)ccc1Nc1ncc(-c2ccc(Cl)c(O[C@@H](C)Cn3cnnn3)c2)cn1 [Example 667, (S)-5-(3-((1-(1H-tetrazol-1-yl)propan-2-yl)oxy)-4-chlorophenyl)-N-(2-methoxy-6-(4-(tetrahydro-2H-pyran-4-yl)-1,4-diazepan-1-yl)pyridin-3-yl)pyrimidin-2-amine] | < 10
C[C@@H](Cn1cnnn1)Oc1cc(-c2cnc(Nc3cn(CCNC(=O)c4ccccc4)nc3C(F)(F)F)nc2)ccc1Cl [Example 630, (S)-N-(2-(4-((5-(3-((1-(1H-tetrazol-1-yl)propan-2-yl)oxy)-4-chlorophenyl)pyrimidin-2-yl)amino)-3-(trifluoromethyl)-1H-pyrazol-1-yl)ethyl)benzamide] | ≥ 100
C[C@@H](Cn1cnnn1)Oc1cc(-c2cnc(Nc3cn(C4Cc5ccccc5C4)nc3C(F)(F)F)nc2)ccc1Cl [Example 724, (S)-5-(3-((1-(1H-tetrazol-1-yl)propan-2-yl)oxy)-4-chlorophenyl)-N-(1-(2,3-dihydro-1H-inden-2-yl)-3-(trifluoromethyl)-1H-pyrazol-4-yl)pyrimidin-2-amine] | ≥ 100
COc1cc(N2CCCN(C3CCOCC3)CC2)ccc1Nc1ncc(-c2ccc(Cl)c(O[C@@H](C)Cn3cnnn3)c2)cn1 [Example 693, (S)-5-(3-((1-(1H-tetrazol-1-yl)propan-2-yl)oxy)-4-chlorophenyl)-N-(2-methoxy-4-(4-(tetrahydro-2H-pyran-4-yl)-1,4-diazepan-1-yl)phenyl)pyrimidin-2-amine] | < 10
